Ki data for 19 compounds are collected here from patent US9879015B2, “Pyrazino[1,2-a]indole compounds, their preparation and use in medicaments” (LABORATORIOS DEL DR. ESTEVE S.A., priority 2013, dated 2018).

Where a name gives a salt, the structure may show the parent alone.

The term Ki denotes the dissociation constant of the complex between target and ligand, obtained from inhibition or displacement. Low values mean higher affinity, high ones lower affinity.

T1 sequence (Q99720 whole entry): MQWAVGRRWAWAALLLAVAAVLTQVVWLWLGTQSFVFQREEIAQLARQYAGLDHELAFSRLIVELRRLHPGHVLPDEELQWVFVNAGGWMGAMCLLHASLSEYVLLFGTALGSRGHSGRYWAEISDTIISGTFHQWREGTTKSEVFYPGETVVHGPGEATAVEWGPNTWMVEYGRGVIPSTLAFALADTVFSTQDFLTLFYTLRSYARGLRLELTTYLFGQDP

The assay has as its target T1, human sigma 1 receptor (Homo sapiens, UniProt Q99720).
T1 construct: expressed in transfected cells; host or cells: HEK-293
The assay can be described thus: Human sigma 1 receptor radioligand assay ([3H](+)-pentazocine, transfected HEK-293 membranes). Format: binding. Particulars: 5 nM [3H](+)-pentazocine, 37° C., 120 minutes. The procedure:
Biological Activity Pharmacological Study Human Sigma 1 Receptor Radioligand Assay
To investigate binding properties of sigma 1 receptor ligands to human sigma 1 receptor, transfected HEK-293 membranes and [^3H](+)-pentazocine (Perkin Elmer, NET-1056), as the radioligand, were used. The assay was carried out with 7 μg of membrane suspension, 5 nM of [^3H](+)-pentazocine in either absence or presence of either buffer or 10 μM Haloperidol for total and non-specific binding, respectively. Binding buffer contained Tris-HCl 50 mM at pH 8. Plates were incubated at 37° C. for 120 minutes. After the incubation period, the reaction mix was then transferred to MultiScreen HTS, FC plates (Millipore), filtered and plates were washed 3 times with ice-cold 10 mM TrisHCL (pH7.4). Filters were dried and counted at approximately 40% efficiency in a MicroBeta scintillation counter (Perkin-Elmer) using EcoScint liquid scintillation cocktail.
In turn, `Fc1ccc2c(c1)cc1n2CCN(CCN2CCCCCC2)C1` [Example 9, 2-(2-(azepan-1-yl)ethyl)-8-fluoro-1,2,3,4-tetrahydropyrazino[1,2-a]indole] displayed a Ki of 0.0019 µM. The result for `CC(CN1CCn2c(cc3cc(F)ccc32)C1)N1CCN(C)CC1` (stereo not shown) [Example 18, 8-fluoro-2-(2-(4-methylpiperazin-1-yl)propyl)-1,2,3,4-tetrahydropyrazino[1,2-a]indole] reads 0.0141 µM; that for `CN1CCN(CCN2CCn3c(cc4ccccc43)C2)CC1` [Example 5, 2-(2-(4-methylpiperazin-1-yl)ethyl)-1,2,3,4-tetrahydropyrazino[1,2-a]indole hydrochloride], 0.153 µM; that for `CN(C)CCCCN1CCn2c(cc3ccccc32)C1` [Example 7, 4-(3,4-dihydropyrazino[1,2-a]indol-2(1H)-yl)-N,N-dimethylbutan-1-amine], 0.0891 µM. The result for `Cc1ccc2c(c1)cc1n2CCN(CC(C)N2CCCCCC2)C1` (stereo not shown) [Example 10, 2-(2-(azepan-1-yl)propyl)-8-methyl-1,2,3,4-tetrahydropyrazino[1,2-a]indole] reads 0.0074 µM. Compound `Cc1c2n(c3ccccc13)CCN(CCN1CCC(Cc3ccccc3)CC1)C2` [Example 11, 2-(2-(4-benzylpiperidin-1-yl)ethyl)-10-methyl-1,2,3,4-tetrahydropyrazino[1,2-a]indole] displayed a Ki of 0.0214 µM. On to `c1ccc2c(c1)cc1n2CCN(CCCCN2CCCCC2)C1` [Example 14, 2-(4-(piperidin-1-yl)butyl)-1,2,3,4-tetrahydropyrazino[1,2-a]indole], for which the affinity, expressed as Ki, was 0.0135 µM.

Compound `c1ccc2c(c1)cc1n2CCN(CCN2CCCCCC2)C1` [Example 3, 2-(2-(azepan-1-yl)ethyl)-1,2,3,4-tetrahydropyrazino[1,2-a]indole hydrochloride] returned a Ki of 0.0039 µM. To `CN1CCN(CCCCN2CCn3c(cc4ccccc43)C2)CC1` [Example 16, 2-(4-(4-methylpiperazin-1-yl)butyl)-1,2,3,4-tetrahydropyrazino[1,2-a]indole] belongs 0.0358 µM. The result for `Cc1c2n(c3ccccc13)CCN(CCN1CCCCCC1)C2` [Example 8, 2-(2-(azepan-1-yl)ethyl)-10-methyl-1,2,3,4-tetrahydropyrazino[1,2-a]indole] reads 0.0125 µM; that for `Fc1ccc2c(c1)cc1n2CCN(CCCCN2CCCCC2)C1` [Example 12, 8-fluoro-2-(4-(piperidin-1-yl)butyl)-1,2,3,4-tetrahydropyrazino[1,2-a]indole], 0.0076 µM; that for `Fc1ccc2c(c1)cc1n2CCN(CCCCN2CCCCCC2)C1` [Example 15, 2-(4-(azepan-1-yl)butyl)-8-fluoro-1,2,3,4-tetrahydropyrazino[1,2-a]indole], 0.0086 µM. The result for `c1ccc(CC2CCN(CCN3CCn4c(cc5ccccc54)C3)CC2)cc1` [Example 4, 2-(2-(4-benzylpiperidin-1-yl)ethyl)-1,2,3,4-tetrahydropyrazino[1,2-a]indole hydrochloride] reads 0.0146 µM. `c1ccc2c(c1)CC1CN(CCN3CCCCCC3)CCN21` (stereo not shown) [Example 2, 2-(2-(azepan-1-yl)ethyl)-1,2,3,4,10,10a-hexahydropyrazino[1,2-a]indole] displayed a Ki of 0.0073 µM. The result for `CC(CN1CCn2c(cc3ccccc32)C1)N1CCC(Cc2ccccc2)CC1` (stereo not shown) [Example 6, 2-(2-(4-benzylpiperidin-1-yl)propyl)-1,2,3,4-tetrahydropyrazino[1,2-a]indole maleate] reads 0.175 µM; that for `CN(C)CCCCN1CCN2c3ccccc3CC2C1` (stereo not shown) [Example 19, N,N-dimethyl-4-(3,4,10,10a-tetrahydropyrazino[1,2-a]indol-2(1H)-yl)butan-1-amine], 0.153 µM. Consider `CC(CN1CCn2c(cc3ccccc32)C1)N1CCN(C)CC1` (stereo not shown) [Example 1, 2-(2-(4-methylpiperazin-1-yl)propyl)-1,2,3,4-tetrahydropyrazino[1,2-a]indole], for which the Ki was determined as 0.0298 µM.

For the compound `c1ccc2c(c1)cc1n2CCN(CCCN2CCCCCC2)C1` [Example 13, 2-(3-(azepan-1-yl)propyl)-1,2,3,4-tetrahydropyrazino[1,2-a]indole], the affinity corresponds to a Ki of 0.0199 µM. Regarding `CC(CN1CCn2c(cc3ccccc32)C1)N1CCN(C2CCCCC2)CC1` (stereo not shown) [Example 17, 2-(2-(4-cyclohexylpiperazin-1-yl)propyl)-1,2,3,4-tetrahydropyrazino[1,2-a]indole], the Ki is 0.0092 µM.
